Legend:
Experiment in all cases: relative viability (nuclei count vs DMSO), 5 days (fraction); higher = more cells survive
[1] = test system: BEN
In short: (§1)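 The day after seeding in 1536-well plates, lung cancer cell lines were treated by pin tool with a single drug, or with a fixed anchor-drug dose together with five library-drug doses (not always all listed) in √10 steps. After 5 days, a combined fix-and-stain solution (final 0.05% Triton X-100, 1% formaldehyde, 1 ug/ml Hoechst) was added. Nuclei counted on 4× images gave relative viability as treated counts over vehicle counts, reported as the median of duplicate plates.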

[2] = test system: HCC-15
In short: as §1

[3] = test system: HCC-78
In short: as §1

[4] = test system: LC-2-ad
In short: as §1

[5] = test system: LCLC-97TM1
In short: as §1

[6] = test system: LK-2
In short: as §1

[7] = test system: LU99A
In short: as §1

[8] = test system: LXF-289
In short: as §1

[9] = test system: NCI-H1651
In short: as §1

[10] = test system: NCI-H1666
In short: as §1

[11] = test system: NCI-H1944
In short: as §1

[12] = test system: NCI-H2087
In short: as §1

[13] = test system: NCI-H322M
In short: as §1

[14] = test system: NCI-H358
In short: as §1

[15] = test system: NCI-H596
In short: as §1

[16] = test system: NCI-H650
In short: as §1

[17] = test system: NCI-H661
In short: as §1

[18] = test system: NCI-H838
In short: as §1

[19] = test system: PC-3 [JPC-3]
In short: as §1

[20] = test system: SK-MES-1
In short: as §1

[21] = test system: UMC-11
In short: as §1

`C=C1C(=O)O[C@@H](CCCCCCCC)[C@@H]1C(=O)O` [C-75] + CS(=O)(=O)CCNCc1ccc(-c2ccc3ncnc(Nc4ccc(OCc5cccc(F)c5)c(Cl)c4)c3c2)o1 [Lapatinib] (partner 2 µM) was tested, and the relative viability ([1]; first compound 0.08 µM) was 0.793, the relative viability ([1]; first compound 0.253 µM) was 0.785 and the relative viability ([1]; first compound 0.8 µM) was 0.682. For the same molecule, the relative viability ([1]; first compound 2.53 µM) was 0.645, the relative viability ([1]; first compound 8 µM) was 0.694 and the relative viability ([2]; first compound 0.08 µM) was 0.838. For the same molecule, the relative viability ([2]; first compound 0.253 µM) was 0.808, the relative viability ([2]; first compound 0.8 µM) was 0.878 and the relative viability ([2]; first compound 2.53 µM) was 0.839. The relative viability ([2]; first compound 8 µM) was 0.894, the relative viability ([3]; first compound 0.08 µM) was 1.05 and the relative viability ([3]; first compound 0.253 µM) was 0.6. For the same molecule, the relative viability ([3]; first compound 0.8 µM) was 0.464, the relative viability ([3]; first compound 2.53 µM) was 0.348 and the relative viability ([3]; first compound 8 µM) was 0.756. For the same molecule, the relative viability ([4]; first compound 0.08 µM) was 0.982, the relative viability ([4]; first compound 0.253 µM) was 0.919 and the relative viability ([4]; first compound 0.8 µM) was 0.898. It also gave a relative viability ([4]; first compound 8 µM) of 1.01, a relative viability ([5]; first compound 0.08 µM) of 0.684 and a relative viability ([5]; first compound 0.253 µM) of 1.67. The relative viability ([5]; first compound 0.8 µM) was 0.881, the relative viability ([5]; first compound 2.53 µM) was 0.555 and the relative viability ([5]; first compound 8 µM) was 0.543. For the same molecule, the relative viability ([6]; first compound 0.08 µM) was 1.03, the relative viability ([6]; first compound 0.253 µM) was 1.15 and the relative viability ([6]; first compound 0.8 µM) was 1.08. The relative viability ([6]; first compound 2.53 µM) was 0.744, the relative viability ([6]; first compound 8 µM) was 0.622 and the relative viability ([7]; first compound 0.08 µM) was 1.1. For the same molecule, the relative viability ([7]; first compound 0.253 µM) was 0.959, the relative viability ([7]; first compound 0.8 µM) was 0.808 and the relative viability ([7]; first compound 2.53 µM) was 0.949. The relative viability ([7]; first compound 8 µM) was 0.87, the relative viability ([8]; first compound 0.08 µM) was 0.842 and the relative viability ([8]; first compound 0.253 µM) was 0.872. It also gave a relative viability ([8]; first compound 0.8 µM) of 0.895, a relative viability ([8]; first compound 2.53 µM) of 0.925 and a relative viability ([8]; first compound 8 µM) of 0.908. For the same molecule, the relative viability ([9]; first compound 0.08 µM) was 0.706, the relative viability ([9]; first compound 0.253 µM) was 0.853 and the relative viability ([9]; first compound 0.8 µM) was 0.816. For the same molecule, the relative viability ([9]; first compound 2.53 µM) was 0.747, the relative viability ([9]; first compound 8 µM) was 0.81 and the relative viability ([10]; first compound 0.08 µM) was 0.668. For the same molecule, the relative viability ([10]; first compound 0.253 µM) was 0.872, the relative viability ([10]; first compound 0.8 µM) was 0.54 and the relative viability ([10]; first compound 2.53 µM) was 0.549. It also gave a relative viability ([10]; first compound 8 µM) of 0.471, a relative viability ([11]; first compound 0.08 µM) of 0.792 and a relative viability ([11]; first compound 0.253 µM) of 0.755. It also gave a relative viability ([11]; first compound 0.8 µM) of 0.685, a relative viability ([11]; first compound 8 µM) of 0.682 and a relative viability ([12]; first compound 0.08 µM) of 1.07. For the same molecule, the relative viability ([12]; first compound 0.253 µM) was 0.975, the relative viability ([12]; first compound 0.8 µM) was 1.1 and the relative viability ([12]; first compound 2.53 µM) was 0.868. For the same molecule, the relative viability ([12]; first compound 8 µM) was 0.776, the relative viability ([13]; first compound 0.08 µM) was 0.597 and the relative viability ([13]; first compound 0.253 µM) was 0.744. For the same molecule, the relative viability ([13]; first compound 0.8 µM) was 0.59, the relative viability ([13]; first compound 2.53 µM) was 0.568 and the relative viability ([13]; first compound 8 µM) was 0.629. The relative viability ([14]; first compound 0.08 µM) was 0.588, the relative viability ([14]; first compound 0.253 µM) was 0.434 and the relative viability ([14]; first compound 0.8 µM) was 0.383. The relative viability ([14]; first compound 2.53 µM) was 0.458, the relative viability ([14]; first compound 8 µM) was 0.599 and the relative viability ([15]; first compound 0.08 µM) was 1.08. The relative viability ([15]; first compound 0.253 µM) was 1.13, the relative viability ([15]; first compound 0.8 µM) was 1.07 and the relative viability ([15]; first compound 2.53 µM) was 0.87. The relative viability ([15]; first compound 8 µM) was 1.14, the relative viability ([16]; first compound 0.08 µM) was 1.02 and the relative viability ([16]; first compound 0.253 µM) was 0.86. The relative viability ([16]; first compound 0.8 µM) was 0.803, the relative viability ([16]; first compound 2.53 µM) was 0.855 and the relative viability ([16]; first compound 8 µM) was 0.826. It also gave a relative viability ([17]; first compound 0.08 µM) of 0.51, a relative viability ([17]; first compound 0.253 µM) of 0.554 and a relative viability ([17]; first compound 0.8 µM) of 0.43. The relative viability ([17]; first compound 2.53 µM) was 0.396, the relative viability ([17]; first compound 8 µM) was 0.407 and the relative viability ([18]; first compound 0.08 µM) was 1.01. It also gave a relative viability ([18]; first compound 0.253 µM) of 0.726, a relative viability ([18]; first compound 0.8 µM) of 0.856 and a relative viability ([18]; first compound 2.53 µM) of 0.803. It also gave a relative viability ([18]; first compound 8 µM) of 0.876, a relative viability ([19]; first compound 0.08 µM) of 0.449 and a relative viability ([19]; first compound 0.253 µM) of 0.528. It also gave a relative viability ([19]; first compound 0.8 µM) of 0.405, a relative viability ([19]; first compound 2.53 µM) of 0.485 and a relative viability ([19]; first compound 8 µM) of 0.478. It also gave a relative viability ([20]; first compound 0.08 µM) of 0.442, a relative viability ([20]; first compound 0.253 µM) of 0.441 and a relative viability ([20]; first compound 0.8 µM) of 0.397. For the same molecule, the relative viability ([20]; first compound 8 µM) was 0.429, the relative viability ([21]; first compound 0.08 µM) was 1.01 and the relative viability ([21]; first compound 0.253 µM) was 1.08. The relative viability ([21]; first compound 0.8 µM) was 0.764, the relative viability ([21]; first compound 2.53 µM) was 0.795 and the relative viability ([21]; first compound 8 µM) was 0.655.

Reference: the supplement of paper PMC10307832
